Toxic doses and inconclusive results are not listed.
Tested on: CD2F1 mice, L1210 leukemia ip, survival T/C
Assay: NCI In Vivo Anticancer Drug Screen. Data for tumor model L1210 Leukemia (intraperitoneal) in CD2F1 (CDF1) mice
Settings: higher = longer survival
Procedure, shortened: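 In this screen, transplantable tumors were grown in mice given either the compound or its vehicle. Results were expressed as the treated measurement relative to the control measurement.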

O=c1[nH]c(=O)n(C2CC(O)C(CO)O2)cc1F (configuration not stated)
T/C (endpoint: mean survival time, dose: 5.0 mg/kg/injection, schedule: Q#A X018 (ip), vehicle: saline): 115 % of control | T/C (endpoint: mean survival time, dose: 9.0 mg/kg/injection, schedule: Q#A X018 (ip), vehicle: saline): 121 % of control | T/C (endpoint: mean survival time, dose: 12.5 mg/kg/injection, schedule: Q03HX024 (oral), vehicle: saline): 101 % of control | T/C (endpoint: mean survival time, dose: 16.0 mg/kg/injection, schedule: Q#A X018 (ip), vehicle: saline): 121 % of control | T/C (endpoint: mean survival time, dose: 25.0 mg/kg/injection, schedule: Q01DX005 (ip), vehicle: water): 108 % of control | T/C (endpoint: mean survival time, dose: 25.0 mg/kg/injection, schedule: Q03HX008 (oral), vehicle: saline): 107 % of control | T/C (endpoint: mean survival time, dose: 25.0 mg/kg/injection, schedule: Q03HX016 (ip), vehicle: saline): 96 % of control | T/C (endpoint: mean survival time, dose: 26.0 mg/kg/injection, schedule: Q#A X018 (ip), vehicle: saline): 123 % of control | T/C (endpoint: mean survival time, dose: 31.3 mg/kg/injection, schedule: Q01DX005 (ip), vehicle: saline): 121 % of control | T/C (endpoint: mean survival time, dose: 37.5 mg/kg/injection, schedule: Q03DX003 (ip), vehicle: water): 121 % of control | T/C (endpoint: mean survival time, dose: 37.5 mg/kg/injection, schedule: Q04DX003 (ip), vehicle: water): 100 % of control | T/C (endpoint: mean survival time, dose: 43.0 mg/kg/injection, schedule: Q#A X018 (ip), vehicle: saline): 108 % of control | T/C (endpoint: mean survival time, dose: 50.0 mg/kg/injection, schedule: Q01DX005 (ip), vehicle: water): 110 % of control | T/C (endpoint: mean survival time, dose: 50.0 mg/kg/injection, schedule: Q01DX009 (oral), vehicle: saline): 119 % of control | T/C (endpoint: mean survival time, dose: 50.0 mg/kg/injection, schedule: Q03HX008 (oral), vehicle: saline): 111 % of control | T/C (endpoint: mean survival time, dose: 50.0 mg/kg/injection, schedule: Q03HX016 (ip), vehicle: saline): 111 % of control | T/C (endpoint: mean survival time, dose: 50.0 mg/kg/injection, schedule: Q03HX024 (oral), vehicle: saline): 107 % of control | T/C (endpoint: mean survival time, dose: 72.0 mg/kg/injection, schedule: Q#A X018 (ip), vehicle: saline): 106 % of control | T/C (endpoint: mean survival time, dose: 75.0 mg/kg/injection, schedule: Q01DX007 (ip), vehicle: water): 100 % of control | T/C (endpoint: mean survival time, dose: 75.0 mg/kg/injection, schedule: Q01DX009 (ip), vehicle: water): 110 % of control | T/C (endpoint: mean survival time, dose: 75.0 mg/kg/injection, schedule: Q03DX003 (ip), vehicle: water): 122 % of control | T/C (endpoint: mean survival time, dose: 75.0 mg/kg/injection, schedule: Q04DX003 (ip), vehicle: water): 111 % of control | T/C (endpoint: mean survival time, dose: 80.0 mg/kg/injection, schedule: Q01DX009 (ip), vehicle: saline): 167 % of control | T/C (endpoint: mean survival time, dose: 100.0 mg/kg/injection, schedule: Q01DX005 (ip), vehicle: water): 110 % of control | T/C (endpoint: mean survival time, dose: 100.0 mg/kg/injection, schedule: Q03HX024 (oral), vehicle: saline): 92 % of control | T/C (endpoint: mean survival time, dose: 100.0 mg/kg/injection, schedule: Q04DX003 (oral), vehicle: saline): 114 % of control | T/C (endpoint: mean survival time, dose: 120.0 mg/kg/injection, schedule: Q#A X018 (ip), vehicle: saline): 94 % of control | T/C (endpoint: mean survival time, dose: 125.0 mg/kg/injection, schedule: Q01DX001 (ip), vehicle: saline): 101 % of control | T/C (endpoint: mean survival time, dose: 125.0 mg/kg/injection, schedule: Q01DX001 (oral), vehicle: saline): 101 % of control | T/C (endpoint: mean survival time, dose: 125.0 mg/kg/injection, schedule: Q01DX001 (sc), vehicle: saline): 109 % of control | T/C (endpoint: mean survival time, dose: 125.0 mg/kg/injection, schedule: Q01DX009 (oral), vehicle: saline): 121 % of control | T/C (endpoint: mean survival time, dose: 125.0 mg/kg/injection, schedule: Q03HX008 (ip), vehicle: saline): 120 % of control | T/C (endpoint: mean survival time, dose: 125.0 mg/kg/injection, schedule: Q03HX016 (ip), vehicle: saline): 110 % of control | T/C (endpoint: mean survival time, dose: 125.0 mg/kg/injection, schedule: Q03HX024 (ip), vehicle: saline): 163 % of control | T/C (endpoint: mean survival time, dose: 125.0 mg/kg/injection, schedule: Q04DX003 (ip), vehicle: saline): 119 % of control | T/C (endpoint: mean survival time, dose: 125.0 mg/kg/injection, schedule: Q08DX002 (ip), vehicle: saline): 100 % of control | T/C (endpoint: mean survival time, dose: 150.0 mg/kg/injection, schedule: Q01DX007 (ip), vehicle: water): 100 % of control | T/C (endpoint: mean survival time, dose: 150.0 mg/kg/injection, schedule: Q01DX009 (ip), vehicle: water): 100 % of control | T/C (endpoint: mean survival time, dose: 160.0 mg/kg/injection, schedule: Q01DX009 (ip), vehicle: saline): 151 % of control | T/C (endpoint: mean survival time, dose: 200.0 mg/kg/injection, schedule: Q01DX001 (oral), vehicle: saline): 113 % of control | T/C (endpoint: mean survival time, dose: 200.0 mg/kg/injection, schedule: Q01DX005 (ip), vehicle: water): 87 % of control | T/C (endpoint: mean survival time, dose: 200.0 mg/kg/injection, schedule: Q01DX009 (oral), vehicle: saline): 114 % of control | T/C (endpoint: mean survival time, dose: 200.0 mg/kg/injection, schedule: Q03HX008 (oral), vehicle: saline): 94 % of control | T/C (endpoint: mean survival time, dose: 200.0 mg/kg/injection, schedule: Q03HX016 (ip), vehicle: saline): 118 % of control | T/C (endpoint: mean survival time, dose: 200.0 mg/kg/injection, schedule: Q08DX002 (oral), vehicle: saline): 103 % of control | T/C (endpoint: mean survival time, dose: 200.0 mg/kg/injection, schedule: Q#A X018 (ip), vehicle: saline): 88 % of control | T/C (endpoint: mean survival time, dose: 250.0 mg/kg/injection, schedule: Q01DX001 (ip), vehicle: saline): 111 % of control | T/C (endpoint: mean survival time, dose: 250.0 mg/kg/injection, schedule: Q01DX001 (oral), vehicle: saline): 108 % of control | T/C (endpoint: mean survival time, dose: 250.0 mg/kg/injection, schedule: Q01DX001 (sc), vehicle: saline): 123 % of control | T/C (endpoint: mean survival time, dose: 250.0 mg/kg/injection, schedule: Q01DX009 (ip), vehicle: saline): 108 % of control | T/C (endpoint: mean survival time, dose: 250.0 mg/kg/injection, schedule: Q01DX009 (oral), vehicle: saline): 121 % of control | T/C (endpoint: mean survival time, dose: 250.0 mg/kg/injection, schedule: Q01DX009 (sc), vehicle: saline): 122 % of control | T/C (endpoint: mean survival time, dose: 250.0 mg/kg/injection, schedule: Q03HX024 (ip), vehicle: saline): 155 % of control | T/C (endpoint: mean survival time, dose: 250.0 mg/kg/injection, schedule: Q04DX003 (ip), vehicle: saline): 162 % of control | T/C (endpoint: mean survival time, dose: 250.0 mg/kg/injection, schedule: Q08DX002 (ip), vehicle: saline): 115 % of control | T/C (endpoint: mean survival time, dose: 320.0 mg/kg/injection, schedule: Q01DX009 (ip), vehicle: saline): 102 % of control | T/C (endpoint: mean survival time, dose: 400.0 mg/kg/injection, schedule: Q01DX001 (oral), vehicle: saline): 117 % of control | T/C (endpoint: mean survival time, dose: 400.0 mg/kg/injection, schedule: Q01DX009 (oral), vehicle: saline): 109 % of control | T/C (endpoint: mean survival time, dose: 400.0 mg/kg/injection, schedule: Q04DX003 (oral), vehicle: saline): 119 % of control | T/C (endpoint: mean survival time, dose: 400.0 mg/kg/injection, schedule: Q08DX002 (oral), vehicle: saline): 107 % of control | T/C (endpoint: mean survival time, dose: 500.0 mg/kg/injection, schedule: Q01DX001 (oral), vehicle: saline): 121 % of control | T/C (endpoint: mean survival time, dose: 500.0 mg/kg/injection, schedule: Q03HX016 (ip), vehicle: saline): 154 % of control | T/C (endpoint: mean survival time, dose: 500.0 mg/kg/injection, schedule: Q03HX024 (ip), vehicle: saline): 121 % of control | T/C (endpoint: mean survival time, dose: 500.0 mg/kg/injection, schedule: Q08DX002 (ip), vehicle: saline): 164 % of control | T/C (endpoint: mean survival time, dose: 800.0 mg/kg/injection, schedule: Q04DX003 (oral), vehicle: saline): 110 % of control | T/C (endpoint: mean survival time, dose: 800.0 mg/kg/injection, schedule: Q08DX002 (oral), vehicle: saline): 156 % of control | T/C (endpoint: mean survival time, dose: 1000.0 mg/kg/injection, schedule: Q01DX001 (oral), vehicle: saline): 151 % of control | T/C (endpoint: mean survival time, dose: 1000.0 mg/kg/injection, schedule: Q01DX001 (sc), vehicle: saline): 159 % of control | T/C (endpoint: mean survival time, dose: 1000.0 mg/kg/injection, schedule: Q03HX008 (ip), vehicle: saline): 157 % of control | T/C (endpoint: mean survival time, dose: 1000.0 mg/kg/injection, schedule: Q03HX024 (ip), vehicle: saline): 92 % of control | T/C (endpoint: mean survival time, dose: 1000.0 mg/kg/injection, schedule: Q04DX003 (ip), vehicle: saline): 98 % of control | T/C (endpoint: mean survival time, dose: 1600.0 mg/kg/injection, schedule: Q01DX001 (oral), vehicle: saline): 103 % of control | T/C (endpoint: mean survival time, dose: 1600.0 mg/kg/injection, schedule: Q08DX002 (oral), vehicle: saline): 97 % of control | T/C (endpoint: median survival time, dose: 51.8 mg/kg/injection, schedule: Q04DX002 (ip), vehicle: saline): 107 % of control | T/C (endpoint: median survival time, dose: 86.4 mg/kg/injection, schedule: Q04DX002 (ip), vehicle: saline): 114 % of control | T/C (endpoint: median survival time, dose: 144.0 mg/kg/injection, schedule: Q04DX002 (ip), vehicle: saline): 121 % of control | T/C (endpoint: median survival time, dose: 400.0 mg/kg/injection, schedule: Q04DX002 (ip), vehicle: saline): 105 % of control
